Laboratory results published in patent US9127044B2, “Cyclic depsipeptides” (NOVARTIS AG, priority 2007, dated 2015).
Read-outs that look alike come from different tables or passages of the source.

Key:
human kallikrein 7 = human kallikrein 7 (Homo sapiens, UniProt P49862); experiment: Kallikrein-7 inhibitory activity in vitro (fluorescence-quenched substrate); type: biochemical
Description: (§1) IC50 for human kallikrein can be measured using the fluorescence-quenched substrate Ac-Glu-Asp(EDANS)-Lys-Pro-Ale-Leu-Phe^Arg-Leu-Gly-Lys(DABCYL)-Glu-NH2 (where ^ indicates the scissile bond, identified by MS analysis) which can be purchased from Biosyntan (Berlin, Germany). Enzymatic reactions are conducted in 50 mM sodium citrate buffer at pH 5.6 containing 150 mM NaCl and 0.05% (w/v) CHAPS. For the determination of IC50 values the assay is performed at room temperature in 384-well plates. All final assay volumes are 30 μl. Test compounds are dissolved in 90% (v/v) DMSO/water and diluted in water (containing 0.05% (w/v) CHAPS) to 3-times the desired assay concentration. The 11 final compound concentrations are: 0.3 nM, 1 nM, 3 nM, 10 nM, 30 nM, 100 nM, 300 nM, 1 μM, 3 μM, 10 μM and 30 μM. For each assay, 10 μl water/CHAPS (±test compound) are added per well, followed by 10 μl protease solution (diluted with 1.5× assay buffer). The protease concentration in final assay solution is 0.2 nM (according to the enzyme concentrations determined by the Bradford method). After 1 hour of incubation at room temperature, the reaction is started by addition of 10 μl substrate solution (substrate dissolved in 1.5× assay buffer, final concentration is 2 μM). […] The IC50 value is calculated from the plot of percentage of inhibition vs. inhibitor concentration using non-linear regression analysis software (XLfit, Vers. 4.0; ID Business Solution Ltd., Guildford, Surrey, UK).
The fluorescence-quenched substrate Ac-Glu-Asp(EDANS)-Lys-Pro-Ale-Leu-Phe^Arg-Leu-Gly-Lys(DABCYL)-Glu-NH2 (where ^ indicates the scissile bond, identified by MS analysis) is purchased from Biosyntan (Berlin, Germany) and kept as a 5 mM stock solution in DMSO at −20° C. All other chemicals are of analytical grade.
Enzymatic reactions are conducted in 50 mM sodium citrate buffer at pH 5.6 containing 150 mM NaCl and 0.05% (w/v) CHAPS.
All protein and peptide containing solutions are handled in siliconized tubes (Life Systems Design, Merenschwand, Switzerland). The compound solutions as well as the enzyme and the substrate solutions are transferred to the 384-well plates (black Cliniplate; cat. no. 95040020 Labsystems Oy, Finland) by means of a CyBi-Well 96-channel pipettor (CyBio AG, Jena, Germany).
(§2) For fluorescence intensity (FI) measurements an Ultra Evolution reader (TECAN, Maennedorf, Switzerland) is used. The instrument is equipped with a combination of a 350 nm (20 nm bandwidth) and a 500 nm (25 nm bandwidth) bandpass filter for fluorescence excitation and emission acquisition, respectively. To increase the signal:background ratio, an appropriate dichroic mirror is employed. The optical filters and the dichroic mirror are purchased from TECAN. The fluorophores in each well are excited by three flashes per measurement.
as §1, with “For” for “IC50 for human kallikrein can be measured using the fluorescence-quenched substrate Ac-Glu-Asp(EDANS)-Lys-Pro-Ale-Leu-Phe^Arg-Leu-Gly-Lys(DABCYL)-Glu-NH2 (where ^ indicates the scissile bond, identified by MS analysis) which can be purchased from Biosyntan (Berlin, Germany). Enzymatic reactions are conducted in 50 mM sodium citrate buffer at pH 5.6 containing 150 mM NaCl and 0.05% (w/v) CHAPS. For”, “volumes were” for “volumes are”, “concentration was” for “concentration is”

[1] = target: T1, Human neutrophil elastase (Homo sapiens, UniProt P08246); experiment: HNE inhibitory activity in vitro (fluorescence-quenched substrate); type: biochemical
T1 construct: purchased Elastin Products Company, Inc. (EPC, Owensville, USA) SE563
T1 sequence (P08246 30-267): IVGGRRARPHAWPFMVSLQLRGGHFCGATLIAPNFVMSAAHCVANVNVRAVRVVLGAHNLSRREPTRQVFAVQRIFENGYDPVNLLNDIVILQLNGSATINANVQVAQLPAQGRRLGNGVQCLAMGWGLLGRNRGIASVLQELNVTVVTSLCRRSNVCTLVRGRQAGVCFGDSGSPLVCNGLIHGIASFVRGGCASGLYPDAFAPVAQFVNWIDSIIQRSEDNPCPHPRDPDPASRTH
Description: Human neutrophil elastase (cat. no. SE563) is purchased from Elastin Products Company, Inc. (EPC, Owensville, USA). The dry powder (purity >95% stated by the supplier) was dissolved in 20 mM sodium acetate buffer, pH 5.0, 50% (v/v) glycerol, and frozen at −80° C. in aliquots.
The fluorescence-quenched substrate (DABCYL-Ser-Glu-Val^Asn-Leu-Asp-Ala-Glu-Phe-EDANS, where ^ indicates the scissile bond, identified by MS analysis) was purchased from Bachem AG (Bubendorf, Switzerland), and kept as a 5 mM stock solution in DMSO at −20° C. All other chemicals were of analytical grade.
Enzymatic reactions were conducted in 100 mM Tris/HCl buffer at pH 7.5, containing 500 mM NaCl, and 0.05% (w/v) CHAPS.
All protein and peptide containing solutions are handled in siliconized tubes (Life Systems Design, Merenschwand, Switzerland).
The compound solutions as well as the enzyme and the substrate solutions are transferred to the 384-well plates (black Cliniplate; cat. no. 95040020 Labsystems Oy, Finland) by means of a CyBi-Well 96-channel pipettor (CyBio AG, Jena, Germany).
as §2

[2] = Table 11, read-out: hKallikrein7 IC 50
[3] = Table 11, read-out: human neutrophile elastase IC 50

Sequence of human kallikrein 7 (P49862 30-253): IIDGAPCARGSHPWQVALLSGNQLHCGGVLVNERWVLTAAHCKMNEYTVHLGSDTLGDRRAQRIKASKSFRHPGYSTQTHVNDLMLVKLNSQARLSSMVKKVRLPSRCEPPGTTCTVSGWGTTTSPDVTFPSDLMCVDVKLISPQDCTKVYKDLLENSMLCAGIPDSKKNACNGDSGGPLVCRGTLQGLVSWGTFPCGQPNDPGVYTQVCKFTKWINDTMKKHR

IC50 (human kallikrein 7; [2]) [nM]	IC50 [1, 3] [nM]	SMILES	IC50 (human kallikrein 7; IC50 for human kallikrein 7) [nM]	IC50 (human kallikrein 7; hKallikrein7 IC 50, Table 11) [nM]	IC50 [1] [nM]
6	55	CCC(C)C1NC(=O)C(Cc2ccc(O)cc2)N(C)C(=O)C(C(C)CC)N2CCCC(NC(=O)C(CC(C)C)NC(=O)C(NC(=O)C(CCC(N)=O)NC(=O)C(C)C)C(C)OC1=O)C2=O (stereo not drawn) [example 4]	–	–	–
–	–	CCCOC1CCC2NC(=O)C(CC(C)C)NC(=O)C(NC(=O)C(CCC(N)=O)NC(=O)C(C)C)C(C)OC(=O)C(C(C)CC)NC(=O)C(Cc3ccc(O)cc3)N(C)C(=O)C(C(C)CC)N1C2=O (stereo not drawn) [example 5]	9	8	5
–	–	CCCCCCCCOC1CCC2NC(=O)C(CC(C)C)NC(=O)C(NC(=O)C(CCC(N)=O)NC(=O)C(C)C)C(C)OC(=O)C(C(C)CC)NC(=O)C(Cc3ccc(O)cc3)N(C)C(=O)C(C(C)CC)N1C2=O (stereo not drawn) [example 6]	–	95	55
–	–	CCC(C)C1NC(=O)C(Cc2ccc(O)cc2)N(C)C(=O)C(C(C)CC)N2C(=O)C(CCC2OCC(F)(F)F)NC(=O)C(CC(C)C)NC(=O)C(NC(=O)C(CCC(N)=O)NC(=O)C(C)C)C(C)OC1=O (stereo not drawn) [example 7]	–	50	6
–	–	CCCCOC1CCC2NC(=O)C(CC(C)C)NC(=O)C(NC(=O)C(CCC(N)=O)NC(=O)C(C)C)C(C)OC(=O)C(C(C)CC)NC(=O)C(Cc3ccc(O)cc3)N(C)C(=O)C(C(C)CC)N1C2=O (stereo not drawn) [example 11]	–	6	12
–	–	CCC(C)C1NC(=O)C(Cc2ccc(O)cc2)N(C)C(=O)C(C(C)CC)N2C(=O)C(CCC2OCC(C)C)NC(=O)C(CC(C)C)NC(=O)C(NC(=O)C(CCC(N)=O)NC(=O)C(C)C)C(C)OC1=O (stereo not drawn) [example 12]	–	8.5	6
–	–	CCC(C)C1NC(=O)C(Cc2ccc(O)cc2)N(C)C(=O)C(C(C)CC)N2C(=O)C(CCC2OCCOC)NC(=O)C(CC(C)C)NC(=O)C(NC(=O)C(CCC(N)=O)NC(=O)C(C)C)C(C)OC1=O (stereo not drawn) [example 13]	–	6	4
–	–	CCC(C)C1NC(=O)C(Cc2ccc(O)cc2)N(C)C(=O)C(C(C)CC)N2C(=O)C(CCC2OCCO)NC(=O)C(CC(C)C)NC(=O)C(NC(=O)C(CCC(N)=O)NC(=O)C(C)C)C(C)OC1=O (stereo not drawn) [example 14]	–	10	5
–	–	CCC(C)C1NC(=O)C(Cc2ccc(O)cc2)N(C)C(=O)C(C(C)CC)N2C(=O)C(CCC2OCCOCCO)NC(=O)C(CC(C)C)NC(=O)C(NC(=O)C(CCC(N)=O)NC(=O)C(C)C)C(C)OC1=O (stereo not drawn) [example 15]	–	15	5
–	–	CCC(C)C1NC(=O)C(Cc2ccc(O)cc2)N(C)C(=O)C(C(C)CC)N2C(=O)C(CCC2OCCOCCOC)NC(=O)C(CC(C)C)NC(=O)C(NC(=O)C(CCC(N)=O)NC(=O)C(C)C)C(C)OC1=O (stereo not drawn) [example 16]	–	15	5
–	–	CCC(C)C1NC(=O)C(Cc2ccc(O)cc2)N(C)C(=O)C(C(C)CC)N2C(=O)C(CCC2OC)NC(=O)C(CC(C)C)NC(=O)C(NC(=O)C(CCC(N)=O)NC(=O)C(C)C)C(C)OC1=O (stereo not drawn) [example 17]	–	3	7.5
–	–	C#CCOC1CCC2NC(=O)C(CC(C)C)NC(=O)C(NC(=O)C(CCC(N)=O)NC(=O)C(C)C)C(C)OC(=O)C(C(C)CC)NC(=O)C(Cc3ccc(O)cc3)N(C)C(=O)C(C(C)CC)N1C2=O (stereo not drawn) [example 18]	–	5	2.5
–	–	CCC(C)C1NC(=O)C(Cc2ccc(O)cc2)N(C)C(=O)C(C(C)CC)N2C(=O)C(CCC2OC)NC(=O)C(CC(C)C)NC(=O)C(NC(=O)C(CCC(=O)OC)NC(=O)C(C)C)C(C)OC1=O (stereo not drawn) [example 20]	–	1.5	8
2.5	9	CCC(C)C1NC(=O)C(Cc2ccc(O)cc2)N(C)C(=O)C(C(C)CC)N2C(=O)C(CCC2O)NC(=O)C(CC(C)C)NC(=O)C(NC(=O)C(CCC#N)NC(=O)C(C)C)C(C)OC1=O (stereo not drawn) [example 21]	–	–	–
6	40	CCC(C)C1NC(=O)C(Cc2ccc(O)cc2)N(C)C(=O)C(C(C)CC)N2CCCC(NC(=O)C(CC(C)C)NC(=O)C(NC(=O)C(CCC#N)NC(=O)C(C)C)C(C)OC1=O)C2=O (stereo not drawn) [example 22]	–	–	–
7	4	CCCOC1CCC2NC(=O)C(CC(C)C)NC(=O)C(NC(=O)C(CCC#N)NC(=O)C(C)C)C(C)OC(=O)C(C(C)CC)NC(=O)C(Cc3ccc(O)cc3)N(C)C(=O)C(C(C)CC)N1C2=O (stereo not drawn) [example 24]	–	–	–
0.85	4.5	CCCCCCOC(=O)Oc1ccc(CC2C(=O)NC(C(C)CC)C(=O)OC(C)C(NC(=O)C(CCC(N)=O)NC(=O)C(C)C)C(=O)NC(CC(C)C)C(=O)NC3CCC(O)N(C3=O)C(C(C)CC)C(=O)N2C)cc1 (stereo not drawn) [example 26]	–	–	–
–	–	CCC(C)[C@@H]1NC(=O)[C@H](Cc2ccc(OC(=O)OCC(C)C)cc2)N(C)C(=O)[C@H](C(C)CC)N2CCCC(NC(=O)[C@H](CC(C)C)NC(=O)[C@@H](NC(=O)[C@H](CCC(N)=O)NC(=O)C(C)C)[C@@H](C)OC1=O)C2=O (stereo partly drawn) [example 27]	–	3	20
2.5	30	CCC(C)C1NC(=O)C(Cc2ccc(OC(=O)OCCOC)cc2)N(C)C(=O)C(C(C)CC)N2CCCC(NC(=O)C(CC(C)C)NC(=O)C(NC(=O)C(CCC(N)=O)NC(=O)C(C)C)C(C)OC1=O)C2=O (stereo not drawn) [example 28]	–	–	–
3	25	CCOC(=O)Oc1ccc(C[C@H]2C(=O)N[C@@H](C(C)CC)C(=O)O[C@H](C)[C@H](NC(=O)[C@H](CCC(N)=O)NC(=O)C(C)C)C(=O)N[C@@H](CC(C)C)C(=O)NC3CCCN(C3=O)[C@@H](C(C)CC)C(=O)N2C)cc1 (stereo partly drawn) [example 29]	–	–	–
200	300	CCCCCCCCOC(=O)Oc1ccc(C[C@H]2C(=O)N[C@@H](C(C)CC)C(=O)O[C@H](C)[C@H](NC(=O)[C@H](CCC(N)=O)NC(=O)C(C)C)C(=O)N[C@@H](CC(C)C)C(=O)NC3CCCN(C3=O)[C@@H](C(C)CC)C(=O)N2C)cc1 (stereo partly drawn) [example 31]	–	–	–

SMILES	IC50 (human kallikrein 7; [2]) [nM]	IC50 [1, 3] [nM]	IC50 (human kallikrein 7; IC50 for human kallikrein 7) [nM]	IC50 (human kallikrein 7; hKallikrein7 IC 50, Table 11) [nM]	IC50 [1] [nM]
CCC(C)C1NC(=O)C(Cc2ccc(OC(=O)OC3CCC4(C)C(=CCC5C4CCC4(C)C(C(C)CCCC(C)C)CCC54)C3)cc2)N(C)C(=O)C(C(C)CC)N2CCCC(NC(=O)C(CC(C)C)NC(=O)C(NC(=O)C(CCC(N)=O)NC(=O)C(C)C)C(C)OC1=O)C2=O (stereo not drawn) [example 30]	1050	4550	–	–	–
